Assay results: patent US20260274832A1, “COMPOUNDS AND THEIR USE IN TREATING CANCER” (ASTRAZENECA AB, priority 2023, published 2026)

How the values were obtained:
[1] = target: T1, AR (AR-full length) in LNCaP cells (Homo sapiens, UniProt P10275, T878A); assay: LNCaP Androgen Receptor Imaging Assay (immunofluorescence of endogenous nuclear AR); type: cell-based; conditions: 24 h incubation; for DC50: concentration giving 50% of maximum degradation of AR per curve fit, single experiment or average of two or more; for Dmax: LNCaP
T1 construct: the prostate cancer cell line LNCaP (expressing AR-full length); endogenous in cells; host or cells: LNCaP
Method in brief: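 Endogenous nuclear AR level was imaged by immunofluorescence after 24 h compound exposure (12-point dose response, 0.3% DMSO, 37° C./5% CO2) in LNCaP cells. Data were expressed as % of a 3 μM prior-art AR PROTAC control and fitted (bell fit where a hook appeared) to give DC50 and maximum degradation Dmax.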

[2] = target: T2, AR (L702H) in LNCaP cells (Homo sapiens, UniProt P10275, L702H/T878A); assay: LNCaP Androgen Receptor L702H Imaging Assay (LNCaP cells engineered by CRISPR/Cas9); type: cell-based; conditions: LNCaP cells with AR L702H mutation, 24 h incubation; for DC50: concentration giving 50% of maximum degradation of AR (L702H) per curve fit; for Dmax: LNCaP
T2 construct: engineered to introduce the mutation L702H into the AR gene using CRISPR/Cas9; endogenous in cells; host or cells: LNCaP cells edited by CRISPR/Cas9 at the AR gene
Method in brief: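 AR (L702H) degradation, expressed as DC50 and Dmax from curve fits normalized to a positive degrader control, was measured by high-content imaging of anti-AR immunofluorescence. The engineered LNCaP line was dosed over 12 concentrations for 24 h, 0.3% DMSO final, before PFA fixation.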

[3] = maximum degradation observed, normalized as % of positive control (prior art AR PROTAC at 3 μM)
[4] = maximum degradation observed, normalized as % of positive control

T2 sequence (P10275 whole entry L702H/T878A): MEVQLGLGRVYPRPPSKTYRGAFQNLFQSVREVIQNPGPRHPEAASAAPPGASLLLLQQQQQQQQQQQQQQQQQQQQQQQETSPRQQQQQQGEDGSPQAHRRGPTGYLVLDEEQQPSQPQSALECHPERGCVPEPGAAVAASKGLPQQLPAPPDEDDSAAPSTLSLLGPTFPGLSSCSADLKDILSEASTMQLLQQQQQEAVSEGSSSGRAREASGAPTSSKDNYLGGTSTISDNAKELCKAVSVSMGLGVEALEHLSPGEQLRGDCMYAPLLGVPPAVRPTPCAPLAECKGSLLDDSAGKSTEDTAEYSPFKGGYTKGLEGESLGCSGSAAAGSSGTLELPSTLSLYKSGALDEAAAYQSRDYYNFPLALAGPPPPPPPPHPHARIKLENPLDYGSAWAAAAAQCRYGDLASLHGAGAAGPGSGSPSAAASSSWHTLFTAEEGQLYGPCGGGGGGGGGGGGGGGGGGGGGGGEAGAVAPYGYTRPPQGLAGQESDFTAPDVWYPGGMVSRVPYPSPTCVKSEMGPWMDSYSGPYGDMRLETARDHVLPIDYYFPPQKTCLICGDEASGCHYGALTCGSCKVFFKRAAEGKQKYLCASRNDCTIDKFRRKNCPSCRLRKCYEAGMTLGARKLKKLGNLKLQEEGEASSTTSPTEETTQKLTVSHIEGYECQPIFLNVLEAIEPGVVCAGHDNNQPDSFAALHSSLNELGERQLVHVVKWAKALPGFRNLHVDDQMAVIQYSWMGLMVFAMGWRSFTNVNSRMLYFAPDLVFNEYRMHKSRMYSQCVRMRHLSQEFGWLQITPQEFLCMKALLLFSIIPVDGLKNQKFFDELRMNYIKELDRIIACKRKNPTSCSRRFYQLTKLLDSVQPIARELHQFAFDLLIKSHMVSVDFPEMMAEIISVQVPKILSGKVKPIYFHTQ
T2 sequence (Q96SW2 whole entry partner): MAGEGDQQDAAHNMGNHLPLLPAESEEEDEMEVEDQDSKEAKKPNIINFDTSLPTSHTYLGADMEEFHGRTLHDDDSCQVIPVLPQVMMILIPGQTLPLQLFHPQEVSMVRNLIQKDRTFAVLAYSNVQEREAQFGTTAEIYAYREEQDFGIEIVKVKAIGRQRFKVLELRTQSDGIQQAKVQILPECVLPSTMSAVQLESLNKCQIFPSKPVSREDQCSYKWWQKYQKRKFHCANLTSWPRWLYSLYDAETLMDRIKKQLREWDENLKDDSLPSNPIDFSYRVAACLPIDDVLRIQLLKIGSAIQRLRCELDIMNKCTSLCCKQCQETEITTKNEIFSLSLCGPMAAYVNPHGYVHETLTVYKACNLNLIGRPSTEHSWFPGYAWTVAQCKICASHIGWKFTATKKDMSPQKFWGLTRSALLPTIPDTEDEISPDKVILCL
T1 sequence (P10275 whole entry T878A): as the sequence (P10275 whole entry L702H/T878A) above, with H702L counted along it
T1 sequence (Q96SW2 whole entry partner): as the sequence (Q96SW2 whole entry partner) above

Row | DC50 [1] [nM] | Dmax [1, 3] [%] | DC50 [2] [nM] | Dmax [2, 4] [%] | LNCaP AR Degradation Dmax [1, 3] [%] | LNCaP AR (L702H) Degradation Dmax [2, 4] [%] | Compound
1 | 14 | 93 | 18 | 96 |  |  | N#Cc1c[nH]c2c(N3CCC(c4ccc(N5CCC(CN6CCN(c7ccc8c(c7)CN(C7CCC(=O)NC7=O)C8=O)CC6)CC5)cc4)CC3)ccc(Cl)c12 (single isomer, unassigned) [Example 18, 4-Chloro-7-[4-(4-{4-[(4-{2-[(3R*)-2,6-dioxopiperidin-3-yl]-1-oxo-2,3-dihydro-1H-isoindol-5-yl}piperazin-1-yl)methyl]piperidin-1-yl}phenyl)piperidin-1-yl]-1H-indole-3-carbonitrile]
2 | 4 |  | 5 |  | 102 | 102 | N#Cc1c[nH]c2c(N3CCC(c4ccc(N5CCC(CN6CCN(c7ccc8c(c7)CN(C7CCC(=O)NC7=O)C8=O)CC6)CC5)cc4)CC3)ccc(Cl)c12 (single isomer, unassigned) [Example 19, 4-Chloro-7-[4-(4-{4-[(4-{2-[(3S*)-2,6-dioxopiperidin-3-yl]-1-oxo-2,3-dihydro-1H-isoindol-5-yl}piperazin-1-yl)methyl]piperidin-1-yl}phenyl)piperidin-1-yl]-1H-indole-3-carbonitrile]
3 | 8 | 103 | 12 | 110 |  |  | N#Cc1c[nH]c2c(N3CCC(c4ccc(N5CCC(CN6CCC(n7ccc8c(N9CCC(=O)NC9=O)cccc87)CC6)CC5)cc4)CC3)ccc(Cl)c12 [Example 5, 4-Chloro-7-(4-{4-[4-({4-[4-(2,4-dioxo-1,3-diazinan-1-yl)-1H-indol-1-yl]piperidin-1-yl}methyl)piperidin-1-yl]phenyl}piperidin-1-yl)-1H-indole-3-carbonitrile]
